Test results taken from PubChem BioAssay (NCI).
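Abbreviation: GI50, concentration required for 50% inhibition of growth. Definition used: TGI = concentration required for complete inhibition of growth.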

Assays:
Assay in all cases: DTP human tumour cell line panel, 384-well format
786-0 renal = test system: 786-0 renal
A498 renal = test system: A498 renal
A549 NSCLC = test system: A549 NSCLC
ACHN renal = test system: ACHN renal
CAKI-1 renal = test system: CAKI-1 renal
CCRF-CEM leukemia = test system: CCRF-CEM leukemia
COLO 205 colon = test system: COLO 205 colon
EKVX NSCLC = test system: EKVX NSCLC
HCT-116 colon = test system: HCT-116 colon
HCT-15 colon = test system: HCT-15 colon
HL-60(TB) leukemia = test system: HL-60(TB) leukemia
HOP-62 NSCLC = test system: HOP-62 NSCLC
HOP-92 NSCLC = test system: HOP-92 NSCLC
HS 578T breast = test system: HS 578T breast
IGROV1 ovarian = test system: IGROV1 ovarian
K-562 leukemia = test system: K-562 leukemia
KM12 colon = test system: KM12 colon
M14 melanoma = test system: M14 melanoma
MALME-3M melanoma = test system: MALME-3M melanoma
MCF7 breast = test system: MCF7 breast
MDA-MB-231 breast = test system: MDA-MB-231 breast
MDA-MB-435 melanoma = test system: MDA-MB-435 melanoma
MDA-MB-468 breast = test system: MDA-MB-468 breast
NCI-H226 lung = test system: NCI-H226 lung
NCI-H322M lung = test system: NCI-H322M lung
NCI-H460 NSCLC = test system: NCI-H460 NSCLC
NCI-H522 lung = test system: NCI-H522 lung
NCI/ADR-RES ovarian = test system: NCI/ADR-RES ovarian
OVCAR-3 ovarian = test system: OVCAR-3 ovarian
OVCAR-4 ovarian = test system: OVCAR-4 ovarian
OVCAR-5 ovarian = test system: OVCAR-5 ovarian
RPMI-8226 leukemia = test system: RPMI-8226 leukemia
RXF 393 renal = test system: RXF 393 renal
SF-268 CNS = test system: SF-268 CNS
SF-295 CNS = test system: SF-295 CNS
SF-539 CNS = test system: SF-539 CNS
SK-MEL-2 melanoma = test system: SK-MEL-2 melanoma
SK-MEL-28 melanoma = test system: SK-MEL-28 melanoma
SK-MEL-5 melanoma = test system: SK-MEL-5 melanoma
SNB-19 CNS = test system: SNB-19 CNS
SNB-75 CNS = test system: SNB-75 CNS
SR leukemia = test system: SR leukemia
SW-620 colon = test system: SW-620 colon
T-47D breast = test system: T-47D breast
U251 glioblastoma = test system: U251 glioblastoma
UACC-257 melanoma = test system: UACC-257 melanoma
UO-31 renal = test system: UO-31 renal

In the case of `C=CC(=O)N1CCN(CCCn2c(=O)c(-c3c(Cl)c(OC)cc(OC)c3Cl)cc3cnc(NC)nc32)CC1`, the GI50 ([…]-0 renal) is reported as 2.38 µM, the TGI (786-0 renal) is reported as 13.7 µM and the GI50 (A498 renal) is reported as 0.462 µM. It also gave a TGI (A498 renal) of 4.69 µM, a GI50 (A549 NSCLC) of 3.23 µM and a TGI (A549 NSCLC) of 14.4 µM. For the same compound, the GI50 (ACHN renal) was 0.975 µM, the TGI (ACHN renal) was 11.3 µM and the GI50 (CAKI-1 renal) was 0.478 µM. It also gave a TGI (CAKI-1 renal) of 3.49 µM, a GI50 (CCRF-CEM leukemia) of 1.51 µM and a TGI (CCRF-CEM leukemia) of 3.29 µM. The GI50 (COLO 205 colon) was 10.9 µM, the TGI (COLO 205 colon) was 22.9 µM and the GI50 (EKVX NSCLC) was 5.95 µM. The TGI (EKVX NSCLC) was 19.6 µM, the GI50 (HCT-116 colon) was 3.55 µM and the TGI (HCT-116 colon) was 14.7 µM. It also gave a GI50 (HCT-15 colon) of 2.37 µM, a TGI (HCT-15 colon) of 14.9 µM and a GI50 (HL-60(TB) leukemia) of 1.55 µM. It also gave a TGI (HL-60(TB) leukemia) of 4.2 µM, a GI50 (HOP-62 NSCLC) of 3.06 µM and a TGI (HOP-62 NSCLC) of 12.1 µM. For the same compound, the GI50 (HOP-92 NSCLC) was 1.61 µM, the TGI (HOP-92 NSCLC) was 6.96 µM and the GI50 (HS 578T breast) was 0.327 µM. It also gave a TGI (HS 578T breast) of 2.35 µM, a GI50 (IGROV1 ovarian) of 0.888 µM and a TGI (IGROV1 ovarian) of 7.23 µM. For the same compound, the GI50 (K-562 leukemia) was 5.67 µM, the TGI (K-562 leukemia) was 18.3 µM and the GI50 (KM12 colon) was 6.06 µM. For the same compound, the TGI (KM12 colon) was 18.8 µM, the GI50 (M14 melanoma) was 2.11 µM and the TGI (M14 melanoma) was 16.1 µM. For the same compound, the GI50 (MALME-3M melanoma) was 1.92 µM, the TGI (MALME-3M melanoma) was 9.84 µM and the GI50 (MCF7 breast) was 7.95 µM. It also gave a TGI (MCF7 breast) of 20.7 µM, a GI50 (MDA-MB-231 breast) of 3.94 µM and a TGI (MDA-MB-231 breast) of 14.9 µM. The GI50 (MDA-MB-435 melanoma) was 4.33 µM, the TGI (MDA-MB-435 melanoma) was 14.7 µM and the GI50 (MDA-MB-468 breast) was 0.95 µM. The TGI (MDA-MB-468 breast) was 2.68 µM, the TGI (NCI-H226 lung) was 11.8 µM and the GI50 (NCI-H322M lung) was 5.16 µM. For the same compound, the TGI (NCI-H322M lung) was > 39.6 µM, the GI50 (NCI-H460 NSCLC) was 2.51 µM and the TGI (NCI-H460 NSCLC) was 12.7 µM. For the same compound, the GI50 (NCI-H522 lung) was 2.66 µM, the TGI (NCI-H522 lung) was 11.8 µM and the GI50 (NCI/ADR-RES ovarian) was 7.93 µM. It also gave a TGI (NCI/ADR-RES ovarian) of 21.3 µM, a GI50 (OVCAR-3 ovarian) of 2.21 µM and a TGI (OVCAR-3 ovarian) of 13.6 µM. For the same compound, the GI50 (OVCAR-4 ovarian) was 3.14 µM, the TGI (OVCAR-4 ovarian) was 18 µM and the GI50 (OVCAR-5 ovarian) was 18.1 µM. The TGI (OVCAR-5 ovarian) was 46.3 µM, the GI50 (RPMI-8226 leukemia) was 0.759 µM and the TGI (RPMI-8226 leukemia) was 2.39 µM. It also gave a GI50 (RXF 393 renal) of 0.665 µM, a TGI (RXF 393 renal) of 3.03 µM and a GI50 (SF-268 CNS) of 1.22 µM. It also gave a TGI (SF-268 CNS) of 7.03 µM, a GI50 (SF-295 CNS) of 8.31 µM and a TGI (SF-295 CNS) of 38.1 µM. For the same compound, the GI50 (SF-539 CNS) was 3.7 µM, the TGI (SF-539 CNS) was 16.4 µM and the GI50 (SK-MEL-2 melanoma) was 1.7 µM. It also gave a TGI (SK-MEL-2 melanoma) of 5.09 µM, a GI50 (SK-MEL-28 melanoma) of 15.1 µM and a TGI (SK-MEL-28 melanoma) of 39.5 µM. The GI50 (SK-MEL-5 melanoma) was 2.35 µM, the TGI (SK-MEL-5 melanoma) was 13.1 µM and the GI50 (SNB-19 CNS) was 5.11 µM. It also gave a TGI (SNB-19 CNS) of 17.3 µM, a GI50 (SNB-75 CNS) of 0.211 µM and a TGI (SNB-75 CNS) of 4.88 µM. The GI50 (SR leukemia) was 1.29 µM, the TGI (SR leukemia) was 3.04 µM and the GI50 (SW-620 colon) was 3.22 µM. It also gave a TGI (SW-620 colon) of 9.31 µM, a GI50 (T-47D breast) of 2.86 µM and a TGI (T-47D breast) of 16.1 µM. The GI50 (U251 glioblastoma) was 3.72 µM, the TGI (U251 glioblastoma) was 16 µM and the GI50 (UACC-257 melanoma) was 4.44 µM. The TGI (UACC-257 melanoma) was 16 µM, the GI50 (UO-31 renal) was 3.72 µM and the TGI (UO-31 renal) was 15.9 µM.
